Assay results: PubChem BioAssay (NCI)
Values joined by “and” are separate entries in the source; they are usually repeats but may differ in a detail not shown here. Equal values may be shown once.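 Following 48 hours of exposure in 96-well plates, responses at five concentrations were used to interpolate endpoints linearly. Here, GI50 denotes the concentration required for 50% inhibition of growth. TGI: total growth inhibition.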

Tests used:
Assay in all cases: NCI-60 cell line screen, 48 h
M19-MEL melanoma = test system: M19-MEL melanoma
DLD-1 colon = test system: DLD-1 colon
K-562 leukemia = test system: K-562 leukemia
RPMI-8226 leukemia = test system: RPMI-8226 leukemia
LXFL 529 NSCLC = test system: LXFL 529 NSCLC
DMS 273 small cell lung = test system: DMS 273 small cell lung
KM20L2 colon = test system: KM20L2 colon
TK-10 renal = test system: TK-10 renal
UACC-257 melanoma = test system: UACC-257 melanoma
HL-60(TB) leukemia = test system: HL-60(TB) leukemia
SNB-78 CNS = test system: SNB-78 CNS
XF 498 CNS = test system: XF 498 CNS
DMS 114 small cell lung = test system: DMS 114 small cell lung
OVCAR-8 ovarian = test system: OVCAR-8 ovarian

Row | Structure (SMILES) | TGI (M19-MEL melanoma) [µM] | TGI (DLD-1 colon) [µM] | TGI (K-562 leukemia) [µM] | TGI (RPMI-8226 leukemia) | TGI (LXFL 529 NSCLC) [µM] | TGI (DMS 273 small cell lung) [µM] | TGI (KM20L2 colon) [µM] | TGI (TK-10 renal) [µM] | TGI (UACC-257 melanoma) | TGI (HL-60(TB) leukemia) [µM] | TGI (SNB-78 CNS) [µM] | TGI (XF 498 CNS) [µM] | TGI (DMS 114 small cell lung) [µM] | TGI (OVCAR-8 ovarian) | GI50 (K-562 leukemia) | GI50 (RPMI-8226 leukemia) | GI50 (TK-10 renal) | GI50 (UACC-257 melanoma) | GI50 (HL-60(TB) leukemia) | GI50 (OVCAR-8 ovarian)
1 | O=C(O)c1cc2sc(C(=O)O)cc2s1 | > 100 | > 100 | > 100 | > 100 µM | > 100 | > 100 | > 100 | > 100 | > 100 µM | > 100 | > 100 | > 100 | > 100 | – | – | – | – | – | – | –
2 | CN=C(NC#N)NCc1ccccc1 | > 100 | > 100 | – | > 100 µM | > 100 | > 100 | > 100 | > 100 | > 100 µM | > 100 | > 100 | > 100 | > 100 | > 100 µM | – | – | – | – | – | –
3 | O=[N+]([O-])c1cnccc1-n1nnc2ccccc21 | 49.6 | > 96.6 | > 100 | > 100 µM | – | 27.2 | > 100 | – | 51.4 µM | > 54.7 | > 100 | 27.1 | 26.6 | 50.8 µM | – | – | – | – | – | –
4 | Cc1nc2ccccc2n1Cc1ccc(NC(=S)NC2CCCCC2)cc1 | – | – | > 100 | > 66.4 µM | – | – | – | > 100 | > 95.1 µM | > 100 | – | – | – | > 100 µM | – | – | – | – | – | –
5 | NCCCCNCCCNC(=O)c1csc(-c2nc(CCN)sc2Cl)n1 | – | – | > 100 | > 100 µM | – | – | – | > 100 | > 100 µM | > 100 | – | – | – | > 100 µM | – | – | – | – | – | –
6 | CCCCCCCCC[C@@H]1C[C@H](O)[C@H](Cc2ccccc2)N1C(=O)OC(C)(C)C | 30.9 | 33.8 | > 100 | 63.3 µM | 30.9 | 32.8 | 34.5 | 29.2 | 30.6 µM | 48.7 | 41.3 | 37 | 32.4 | 34.3 µM | – | – | – | – | – | –
7 | CC(=O)Nc1ccc2cc3c(nc2n1)c1cccnc1n3S(=O)(=O)c1ccccc1 | – | – | > 100 | > 100 µM | – | – | – | > 100 | > 100 µM | > 100 | – | – | – | > 100 µM | – | – | – | – | – | –
8 | COC(=O)/C=C/c1cc(OC)c2c(c1)C(C(=O)OC)C(c1ccc(O)c(OC)c1)O2 (stereo not drawn) | – | – | > 50.3 | 13.6 µM and > 60.8 µM and 15.6 µM | – | – | – | > 100 | > 100 µM and 63.2 µM | – | – | – | – | > 100 µM and > 72.2 µM and 21.6 µM | 1.51 µM and 1.11 µM and 0.579 µM | 2.94 µM and 3.93 µM and 1.69 µM | 47.5 µM and 15.6 µM and 15.3 µM | > 25.9 µM and 6.49 µM | 1.14 µM and 1.81 µM and 0.325 µM | 10.8 µM and 4.76 µM and 2.32 µM
9 | C=C(C)[C@H]1C=C[C@@H](OC(C)=O)[C@@]2(COC(C)=O)[C@H](OC(=O)CCC)[C@H]3[C@@H](OC(C)=O)[C@@H](C)C[C@]3(O)C(=O)[C@@](C)(OC(C)=O)[C@H]12 | – | – | > 100 | 66.7 µM | – | – | – | > 100 | > 100 µM | > 100 | – | – | – | > 100 µM | – | – | – | – | – | –
10 | NC(=O)NC(=O)c1cccc(C(=O)NC(N)=O)n1 | – | – | > 100 | > 100 µM | – | – | – | > 100 | > 100 µM | > 100 | – | – | – | > 100 µM | – | – | – | – | – | –
11 | CCOc1ccnc2c(OC)c(C)c3nc4ccccc4nc3c12 | – | – | > 100 | > 100 µM | – | – | – | > 100 | > 100 µM | > 100 | – | – | – | > 100 µM | – | – | – | – | – | –
12 | CNC(=S)c1nnsc1N | – | – | > 100 | > 100 µM | – | – | – | > 100 | > 100 µM | 0.0686 | – | – | – | > 100 µM | – | – | – | – | – | –
13 | O=C(CCCN1CCC(Nc2ccc(F)cc2)(c2nnnn2C2CCCCC2)CC1)c1ccc(F)cc1 | – | – | > 100 | 34.4 µM | – | – | – | 29.4 | 57.3 µM | 40.4 | – | – | – | 63.4 µM | – | – | – | – | – | –
14 | O=C(CN1CCOCC1)c1ccc2c(c1)oc(=O)n2CCN1CCCCC1 | – | – | > 100 | > 100 µM | – | – | – | > 100 | > 100 µM | > 100 | – | – | – | > 100 µM | – | – | – | – | – | –
15 | CC(=O)Oc1ccc(C2SCc3nc4ccccc4n32)cc1 (stereo not drawn) | – | – | > 100 | > 100 µM | – | – | – | > 100 | > 100 µM | 37.8 | – | – | – | > 100 µM | – | – | – | – | – | –
16 | COC1=C2C[C@](OC)(C#CC=CC#CC2O)CC1(C)C (stereo partly drawn) | – | – | > 100 | > 100 µM | – | – | – | > 100 | > 100 µM | > 100 | – | – | – | > 100 µM | – | – | – | – | – | –
17 | O=C1N(c2ccccc2)N=C2c3ccncc3C3=NN(c4ccccc4)C(=O)C123 (stereo not drawn) | – | – | > 100 | > 100 µM | – | – | – | > 100 | > 100 µM | > 100 | – | – | – | > 100 µM | – | – | – | – | – | –
18 | C=CCOC1=C(OC(C)=O)C(C2COC(C)(C)O2)OC1=O (stereo not drawn) | – | – | 35.9 | 61 µM | – | – | – | 68.7 | 39.7 µM | 40.3 | – | – | – | > 100 µM | – | – | – | – | – | –
19 | CCOC(=O)C1=CN(Cc2ccccc2)C2ON=C(c3ccc(Cl)cc3)C2C1 (stereo not drawn) | – | – | > 100 | > 100 µM | – | – | – | > 81.3 | > 66.8 µM | > 47.1 | – | – | – | > 67.4 µM | – | – | – | – | – | –
20 | CCOC(=O)CCNC(=O)c1cc(C)cc2c1Oc1c(cc(C)cc1C(=O)NCCC(=O)OCC)S2 | – | – | > 100 | > 100 µM | – | – | – | > 100 | > 100 µM | > 100 | – | – | – | > 100 µM | – | – | – | – | – | –
